Test results as given in ChEMBL document CHEMBL4715789, “Identification of a Potential Antimalarial Drug Candidate from a Series of 2-Aminopyrazines by Optimization of Aqueous Solubility and Potency across the Parasite Life Cycle” (J Med Chem, 2016).
Values after ≈ are worked out from the molar mass of the structure shown.

Assays:
Plasmodium falciparum [1] = assay: microbe, parasite or virus in culture; settings: NF54, Erythrocyte
Description: Antiplasmodial activity against multidrug-sensitive Plasmodium falciparum NF54 infected in human erythrocytes assessed as reduction in [3H]hypoxanthine incorporation preincubated for 48 hrs followed by [3H]hypoxanthine addition and measured after 24 hrs by liquid scintillation counting method

[2] = Metabolic stability in human liver microsomes assessed as compound remaining at 0.1 uM measured after 30 mins in presence of cofactor NADPH by LC-MS/MS analysis; assay type: ADME, Microsome; settings: read-out: Stabilty
[3] = Metabolic stability in rat liver microsomes assessed as compound remaining at 0.1 uM measured after 30 mins in presence of cofactor NADPH by LC-MS/MS analysis; assay type: ADME, Microsome; settings: read-out: Stabilty
Plasmodium berghei [4] = assay: Antiplasmodial activity against Plasmodium berghei ANKA infected in NMRI mouse model assessed as mean survival days at 3 mg/kg, po qd for 4 consecutive day; assay type: functional; settings: time 4 day
Plasmodium berghei [5] = assay: Antiplasmodial activity against Plasmodium berghei ANKA infected in NMRI mouse model assessed as mean survival days at 10 mg/kg, po qd for 4 consecutive day; assay type: functional; settings: time 4 day
[6] = Metabolic stability in mouse liver microsomes assessed as compound remaining at 0.1 uM measured after 30 mins in presence of cofactor NADPH by LC-MS/MS analysis; assay type: ADME, Microsome; settings: read-out: Stabilty
[7] = Cmax(app) in NMRI mouse plasma infected with Plasmodium berghei ANKA at 3 mg/kg, po qd for 4 consecutive days and measured post last dose; assay type: ADME, organism-based; settings: time 4 day
Plasmodium falciparum [8] = assay: microbe, parasite or virus in culture; settings: K1, Erythrocyte
Description: Antiplasmodial activity against multidrug-resistant Plasmodium falciparum K1 infected in erythrocytes assessed as reduction in [3H]hypoxanthine incorporation preincubated for 48 hrs followed by [3H]hypoxanthine addition and measured after 24 hrs by liquid scintillation counting method

Plasmodium berghei [9] = assay: Antiplasmodial activity against Plasmodium berghei ANKA infected in NMRI mouse assessed as reduction in parasitemia at 3 mg/kg, po qd for 4 consecutive days measured at day 7 post infection by flow cytometry analysis; assay type: functional; parameters: scale not given: the % may be the effect or the level left; settings: time 4 day
[10] = Aqueous solubility of compound in pH 6.5 PBS incubated for 2 hrs under shaking condition by shake-flask method based HPLC-DAD analysis; assay type: physicochemical
[11] = Aqueous solubility of compound in pH 2 0.01M HCl incubated for 2 hrs under shaking condition by shake-flask method based HPLC-DAD analysis; assay type: physicochemical
[12] = molecular target: Voltage-gated inwardly rectifying potassium channel KCNH2 (Homo sapiens, UniProt Q12809); assay: Inhibition of human ERG by IonWorks patch clamp electrophysiology method
Chain of Voltage-gated inwardly rectifying potassium channel KCNH2 (Q12809 whole entry): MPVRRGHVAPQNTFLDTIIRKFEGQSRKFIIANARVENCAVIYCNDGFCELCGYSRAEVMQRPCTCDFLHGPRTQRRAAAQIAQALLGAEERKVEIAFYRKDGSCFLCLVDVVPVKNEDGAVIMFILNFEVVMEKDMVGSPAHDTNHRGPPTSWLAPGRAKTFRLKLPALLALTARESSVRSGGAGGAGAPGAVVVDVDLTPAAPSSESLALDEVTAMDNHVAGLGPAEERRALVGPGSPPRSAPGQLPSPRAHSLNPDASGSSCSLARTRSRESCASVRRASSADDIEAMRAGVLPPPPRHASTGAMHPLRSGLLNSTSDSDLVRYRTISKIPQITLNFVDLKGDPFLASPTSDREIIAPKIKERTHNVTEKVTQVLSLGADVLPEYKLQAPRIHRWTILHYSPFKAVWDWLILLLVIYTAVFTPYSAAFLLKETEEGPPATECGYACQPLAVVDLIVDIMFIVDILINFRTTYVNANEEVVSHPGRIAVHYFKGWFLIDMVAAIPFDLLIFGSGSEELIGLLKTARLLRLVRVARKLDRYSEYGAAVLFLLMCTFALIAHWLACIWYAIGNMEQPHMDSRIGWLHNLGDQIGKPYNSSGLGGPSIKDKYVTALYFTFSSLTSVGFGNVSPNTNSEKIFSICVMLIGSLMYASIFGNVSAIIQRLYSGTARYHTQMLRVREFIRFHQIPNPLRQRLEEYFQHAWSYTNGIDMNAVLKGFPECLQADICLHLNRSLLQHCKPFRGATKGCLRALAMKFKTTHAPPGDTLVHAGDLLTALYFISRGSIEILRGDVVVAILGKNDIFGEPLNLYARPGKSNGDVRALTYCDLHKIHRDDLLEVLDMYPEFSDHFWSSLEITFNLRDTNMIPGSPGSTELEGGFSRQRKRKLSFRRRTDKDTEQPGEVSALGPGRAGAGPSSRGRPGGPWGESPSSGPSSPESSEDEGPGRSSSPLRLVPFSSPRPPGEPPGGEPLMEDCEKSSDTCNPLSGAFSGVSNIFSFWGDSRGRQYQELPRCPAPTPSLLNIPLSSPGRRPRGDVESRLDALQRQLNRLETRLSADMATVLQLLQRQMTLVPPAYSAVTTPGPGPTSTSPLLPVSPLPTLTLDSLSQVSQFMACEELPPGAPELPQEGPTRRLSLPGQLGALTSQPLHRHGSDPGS

Plasmodium berghei [13] = assay: Antiplasmodial activity against Plasmodium berghei ANKA infected in NMRI mouse assessed as reduction in parasitemia at 10 mg/kg, po qd for 4 consecutive days measured at day 7 post infection by flow cytometry analysis; assay type: functional; parameters: scale not given: the % may be the effect or the level left; settings: time 4 day
[14] = Selectivity index, ratio of IC50 for cytotoxicity against CHO cells by MTT assay to IC50 for antiplasmodial activity against multidrug-sensitive Plasmodium falciparum NF54 infected in human erythrocytes; assay type: toxicity, cell-based; settings: Chinese hamster, read-out: Ratio IC50

| SMILES | IC50 (Plasmodium falciparum [1]) [nM] | remaining at 0.5 h, 0.1 µM [2] [%] | remaining at 0.5 h, 0.1 µM [3] [%] | MSD (Plasmodium berghei [4]) [days] | MSD (Plasmodium berghei [5]) [days] | remaining at 0.5 h, 0.1 µM [6] [%] | Cmax [7] [nM] | IC50 (Plasmodium falciparum [8]) [nM] | Activity (Plasmodium berghei [9]) [%] | solubility thermodynamic at 2 h [10] [µM] | solubility thermodynamic at 2 h [11] [µM] | IC50 [12] [nM] | Activity (Plasmodium berghei [13]) [%] | selectivity ratio [14] |
| --- | --- | --- | --- | --- | --- | --- | --- | --- | --- | --- | --- | --- | --- | --- |
| CN1CCN(C(=O)c2ccc(-c3cnc(N)c(-c4ccc(C(F)(F)F)cc4)n3)cc2)CC1 | 7.9 | > 90 | > 90 | 12 | 26 | > 90 | 1600 | 6.8 | – | – | – | – | – | – |
| Nc1ncc(-c2ccc(C(=O)N3CCCNCC3)cc2)nc1-c1ccc(C(F)(F)F)cc1 | 7.7 | – | – | 11 | – | – | – | 6.3 | 88 | 128 (≈ 56.5 µg/mL) | 190 (≈ 83.9 µg/mL) | – | – | – |
| Nc1ncc(-c2ccc(C(=O)N3CCC(N)CC3)cc2)nc1-c1ccc(C(F)(F)F)nc1 | 20 | – | – | 6 | – | – | – | 18 | 41 | 163 (≈ 72.1 µg/mL) | 200 (≈ 88.5 µg/mL) | – | – | – |
| Nc1ccc(-c2cnc(N)c(-c3ccc(N)nc3)n2)cn1 | 203 | > 90 | > 90 | – | – | > 90 | – | 143 | – | – | – | – | – | – |
| CC(C)(C)N1CCN(C(=O)c2ccc(-c3cnc(N)c(-c4ccc(C(F)(F)F)cc4)n3)cc2)CC1 | 17 | – | – | – | – | – | – | 11 | – | 95 (≈ 45.9 µg/mL) | 200 (≈ 96.7 µg/mL) | 2000 | – | – |
| N#Cc1ccc(-c2cnc(N)c(-c3ccc(C(F)(F)F)nc3)n2)nc1 | 2710 | – | – | – | – | – | – | – | – | – | – | – | – | – |
| Nc1ccc(-c2cnc(N)c(-c3ccc(C(F)(F)F)nc3)n2)cn1 | – | > 90 | > 90 | – | – | > 90 | – | – | – | 34 (≈ 11.3 µg/mL) | 199 (≈ 66.1 µg/mL) | – | – | – |
| Nc1ncc(-c2ccc(C(=O)N3CCC(N)CC3)cc2)nc1-c1ccc(C(F)(F)F)cc1 | 10 | – | – | 7 | – | – | – | 7.5 | 65 | 88 (≈ 38.8 µg/mL) | 200 (≈ 88.3 µg/mL) | – | – | – |
| CN1CCCN(C(=O)c2ccc(-c3cnc(N)c(-c4ccc(C(F)(F)F)nc4)n3)cc2)CC1 | 15 | > 90 | > 90 | 12 | – | > 90 | – | 9.9 | – | 85 (≈ 38.8 µg/mL) | 200 (≈ 91.3 µg/mL) | – | – | – |
| N#Cc1ccc(-c2cnc(N)c(-c3ccc(N)nc3)n2)cc1 | 222 | > 90 | > 90 | – | – | > 90 | – | 149 | – | < 5 | 208 (≈ 60 µg/mL) | – | – | – |
| NC(=O)c1ccc(-c2cnc(N)c(-c3ccc(C(F)(F)F)nc3)n2)nc1 | 1580 | – | – | – | – | – | – | – | – | < 5 | 123 (≈ 44.3 µg/mL) | – | – | – |
| Nc1ncc(-c2ccc(C(=O)N3CCC(N)C3)cc2)nc1-c1ccc(C(F)(F)F)nc1 (centres undefined) | 40 | – | – | 7 | – | – | – | 26 | 47 | 116 (≈ 49.7 µg/mL) | 200 (≈ 85.7 µg/mL) | – | – | – |
| N#Cc1ccc(-c2cnc(N)c(-c3ccc(C(N)=O)cc3)n2)cc1 | 57 | – | – | – | – | – | – | 44 | – | – | – | – | – | – |
| Nc1ncc(-c2ccc(C(F)(F)F)nc2)nc1-c1ccc(C(F)(F)F)nc1 | – | > 90 | > 90 | – | – | > 90 | – | – | – | – | – | – | – | – |
| Nc1ncc(-c2ccc(C(=O)N3CC[C@H](O)C3)cc2)nc1-c1ccc(C(F)(F)F)cc1 | 6 | > 90 | > 90 | 8 | 16 | > 90 | – | – | – | 68 (≈ 29.1 µg/mL) | 93 (≈ 39.8 µg/mL) | – | 100 | – |
| NC(=O)c1ccc(-c2cnc(N)c(-c3ccc(C(N)=O)cc3)n2)cc1 | 25 | – | – | – | – | – | – | 21 | – | – | – | – | – | – |
| Nc1ncc(-c2ccc(C(=O)N3CCNCC3)cc2)nc1-c1ccc(C(F)(F)F)nc1 | 9.1 | > 90 | > 90 | – | – | > 90 | – | 7.7 | <40 | 198 (≈ 84.8 µg/mL) | 200 (≈ 85.7 µg/mL) | – | – | – |
| Nc1ncc(-c2ccc(C(=O)N3CCC(O)C3)cc2)nc1-c1ccc(C(F)(F)F)nc1 (centres undefined) | 18 | – | – | 7 | – | – | – | 12 | 61 | 155 (≈ 66.6 µg/mL) | 200 (≈ 85.9 µg/mL) | – | – | – |
| CS(=O)(=O)c1ccc(-c2cnc(N)c(-c3ccc(N)nc3)n2)cc1 | 38 | > 90 | > 90 | – | – | > 90 | – | 27 | – | 149 (≈ 50.9 µg/mL) | 206 (≈ 70.3 µg/mL) | – | – | – |
| CNC(=O)c1ccc(-c2nc(-c3ccc(C(N)=O)cc3)cnc2N)cc1 | 52 | – | – | – | – | – | – | 52 | – | 178 (≈ 61.8 µg/mL) | 186 (≈ 64.6 µg/mL) | – | – | – |
| COC(=O)c1ccc(-c2cnc(N)c(-c3ccc(C(F)(F)F)cc3)n2)cc1 | 2630 | – | – | – | – | – | – | – | – | < 5 | < 5 | – | – | – |
| Nc1ccc(-c2nc(-c3ccc(S(=O)(=O)C4CC4)cc3)cnc2N)cn1 | 38 | > 90 | > 90 | – | – | > 90 | – | 44 | – | 13 (≈ 4.78 µg/mL) | 212 (≈ 77.9 µg/mL) | – | – | – |
| NC(=O)c1ccc(-c2cnc(N)c(-c3ccc(C(F)(F)F)nc3)n2)cn1 | 5.2 | > 90 | > 90 | 7 | 14 | > 90 | – | 7.2 | 97.5 | 5 (≈ 1.8 µg/mL) | 7 (≈ 2.52 µg/mL) | – | 99.9 | > 1800 |
| CN1CCN(C(=O)c2ccc(-c3cnc(N)c(-c4ccc(C(F)(F)F)nc4)n3)cc2)CC1 | 9.9 | > 90 | > 90 | 7 | 8 | > 90 | – | 9.9 | 81 | 182 (≈ 80.5 µg/mL) | 200 (≈ 88.5 µg/mL) | – | – | – |
| Nc1ccc(-c2nc(-c3ccc(C(=O)N4CCNCC4)cc3)cnc2N)cn1 | 51 | – | – | – | – | – | – | 37 | – | 186 (≈ 69.8 µg/mL) | 189 (≈ 71 µg/mL) | – | – | – |
| Nc1ncc(-c2ccc(C(=O)N3CCCNCC3)cc2)nc1-c1ccc(C(F)(F)F)nc1 | 12.7 | – | – | 7 | – | – | – | 10.2 | 55 | 146 (≈ 64.6 µg/mL) | 200 (≈ 88.5 µg/mL) | – | – | – |
